Source: patent publication US12540141B2, “Spiropyrrolidine derived antiviral agents” (priority 2020, dated 2026)

What follows are molecules tested against SARS-CoV-2 3CL-protease (Severe acute respiratory syndrome coronavirus 2, UniProt P0DTD1) (assay: SARS-CoV-2 3C-Like (3CL) Protease Fluorescence Assay (FRET)). Conditions: SARS-CoV-2 3CL-protease 10 nM, 30 min preincubation at RT, substrate 40 μM.
Assay type: biochemical
With `CCCOC[C@H](NC(=O)c1cc2c(OC)cccc2[nH]1)C(=O)N1C[C@]2(C[C@H]1C#N)C(=O)Nc1ccccc12` [Example 126] the IC50 was under 100 nM.
`C#CCOC[C@H](NC(=O)c1cc2c(OC)cccc2[nH]1)C(=O)N1C[C@]2(C[C@H]1C#N)C(=O)Nc1ccccc12` [Example 127] showed an IC50 of under 100 nM.
`CC(C)(C)OC(=O)NC[C@H](NC(=O)c1cc2c(F)cc(F)cc2[nH]1)C(=O)N1C[C@]2(C[C@H]1C#N)C(=O)Nc1ccccc12` [Example 128] was tested, and the IC50 was over 1000 nM.
`N#C[C@@H]1C[C@@]2(CN1C(=O)[C@H](COCc1cnn[nH]1)NC(=O)c1cc3c(F)cc(F)cc3[nH]1)C(=O)Nc1ccccc12` [Example 129] gave an IC50 of over 1000 nM.
Work on `C[C@@H](CC(=O)N[C@@H](CC(C)(C)C)C(=O)N1C[C@]2(C[C@H]1C#N)C(=O)Nc1ccccc12)NC(=O)OCc1ccccc1` [Example 130] yielded an IC50 of 100 to 1000 nM.
In the case of `CCCC[C@H](NC(=O)c1cnn(C(C)(C)C)c1)C(=O)N1C[C@]2(C[C@H]1C#N)C(=O)Nc1ccccc12` [Example 131], the IC50 is reported as under 100 nM.
`CC(C)(C)n1cc(C(=O)N[C@@H](CC2CC2)C(=O)N2C[C@]3(C[C@H]2C#N)C(=O)Nc2ccccc23)cn1` [Example 132] was tested, and the IC50 was under 100 nM.
`CC(C)(C)C[C@H](NC(=O)c1cnn(C(C)(C)C)c1)C(=O)N1C[C@]2(C[C@H]1C#N)C(=O)Nc1ccccc12` [Example 133] showed an IC50 of under 100 nM.
In the case of `CC(C)(C)C[C@H](NC(=O)c1ccc2ncc(C(F)(F)F)cc2c1)C(=O)N1C[C@]2(C[C@H]1C#N)C(=O)Nc1ccccc12` [Example 134], the IC50 is reported as 100 to 1000 nM.
`Cc1cnc2ccc(C(=O)N[C@@H](CC(C)(C)C)C(=O)N3C[C@]4(C[C@H]3C#N)C(=O)Nc3ccccc34)cc2c1` [Example 135] gave an IC50 of under 100 nM.
For `CC(C)(C)C[C@H](NC(=O)c1ccc2ncc(C3CC3)cc2c1)C(=O)N1C[C@]2(C[C@H]1C#N)C(=O)Nc1ccccc12` [Example 136], the IC50 was under 100 nM.
For `CC(C)(C)C[C@H](NC(=O)c1cc(OC(F)(F)F)c2ncccc2c1)C(=O)N1C[C@]2(C[C@H]1C#N)C(=O)Nc1ccccc12` [Example 137], the IC50 was under 100 nM.
`CC(C)(C)C[C@H](NC(=O)c1cc(Cl)c2ncccc2c1)C(=O)N1C[C@]2(C[C@H]1C#N)C(=O)Nc1ccccc12` [Example 138] gave an IC50 of under 100 nM.
Work on `CC(C)(C)C[C@H](NC(=O)c1cc(OC(F)F)c2ncccc2c1)C(=O)N1C[C@]2(C[C@H]1C#N)C(=O)Nc1ccccc12` [Example 139] yielded an IC50 of under 100 nM.
`CC(C)(C)C[C@H](NC(=O)c1cn(-c2ccc(Cl)cc2)nn1)C(=O)N1C[C@]2(C[C@H]1C#N)C(=O)Nc1ccccc12` [Example 140] showed an IC50 of 100 to 1000 nM.
For `CC(C)(C)C[C@H](NC(=O)c1cn(C2CC2)nn1)C(=O)N1C[C@]2(C[C@H]1C#N)C(=O)Nc1ccccc12` [Example 141], the IC50 was under 100 nM.
In the case of `CC(C)(C)C[C@H](NC(=O)c1cn(-c2cccc(Cl)c2)nn1)C(=O)N1C[C@]2(C[C@H]1C#N)C(=O)Nc1ccccc12` [Example 142], the IC50 is reported as 100 to 1000 nM.
For `CC(C)(C)C[C@H](NC(=O)c1cn(CC(F)(F)F)nn1)C(=O)N1C[C@]2(C[C@H]1C#N)C(=O)Nc1ccccc12` [Example 143], the IC50 was under 100 nM.
Molecule `CC(C)(C)C[C@H](NC(=O)c1cnn(CC(F)(F)F)c1)C(=O)N1C[C@]2(C[C@H]1C#N)C(=O)Nc1ccccc12` [Example 144] has an IC50 of under 100 nM.
`CC(C)(C)C[C@H](NC(=O)c1cnn(-c2ccc(C(F)(F)F)cc2)c1)C(=O)N1C[C@]2(C[C@H]1C#N)C(=O)Nc1ccccc12` [Example 145] was tested, and the IC50 was under 100 nM.
`Cc1cc2cc(C(=O)N[C@@H](CC(C)(C)C)C(=O)N3C[C@]4(C[C@H]3C#N)C(=O)Nc3ccccc34)cc(Cl)c2nc1C` [Example 147] gave an IC50 of under 100 nM.
With `CC(C)(C)C[C@H](NC(=O)c1cn(C2CCC2)nn1)C(=O)N1C[C@]2(C[C@H]1C#N)C(=O)Nc1ccccc12` [Example 148] the IC50 was under 100 nM.
In the case of `CC(C)C[C@@H](C(=O)N1C[C@]2(C[C@H]1C=O)C(=O)Nc1ccccc12)N(C)C(=O)c1cc2c(F)cc(F)cc2[nH]1` [Example 149], the IC50 is reported as under 100 nM.
For `CC(C)C[C@@H](C(=O)N1C[C@]2(C[C@H]1C=O)C(=O)Nc1ccccc12)N(C)C(=O)c1cc2c(F)cc(F)c(F)c2[nH]1` [Example 150], the IC50 was under 100 nM.
`CC(C)C[C@H](NC(=O)c1ccc(-c2ccccc2)[nH]1)C(=O)N1C[C@]2(C[C@H]1C#N)C(=O)Nc1ccccc12` [Example 151] gave an IC50 of over 1000 nM.
`CC(C)C[C@@H](C(=O)N1C[C@]2(C[C@H]1C(O)S(=O)(=O)O)C(=O)Nc1ccccc12)N(C)C(=O)c1cc2c(F)cc(F)cc2[nH]1` (stereo partly drawn) [Example 153] was tested, and the IC50 was under 100 nM.
Work on `CC(C)C[C@@H](C(=O)N1C[C@]2(C[C@H]1C(O)S(=O)(=O)O)C(=O)Nc1ccccc12)N(C)C(=O)c1cc2c(F)cc(F)c(F)c2[nH]1` (stereo partly drawn) [Example 154] yielded an IC50 of under 100 nM.
With `CC(C)C[C@@H](C(=O)N1C[C@]2(C[C@H]1C(=O)C(=O)NC1CCCCC1)C(=O)Nc1ccccc12)N(C)C(=O)c1cc2c(F)cc(F)cc2[nH]1` [Example 155] the IC50 was over 1000 nM.
In the case of `CC(C)C[C@@H](C(=O)N1C[C@]2(C[C@H]1C(=O)CO)C(=O)Nc1ccccc12)N(C)C(=O)c1cc2c(F)cc(F)cc2[nH]1` [Example 157], the IC50 is reported as over 1000 nM.
Molecule `CC(C)C[C@@H](C(=O)N1C[C@]2(C[C@H]1C(=O)CO)C(=O)Nc1ccccc12)N(C)C(=O)c1cc2c(F)cc(F)c(F)c2[nH]1` [Example 158] has an IC50 of over 1000 nM.
`CC(C)C[C@@H](C(=O)N1C[C@]2(C[C@H]1C(=O)CCl)C(=O)Nc1ccccc12)N(C)C(=O)c1cc2c(F)cc(F)c(F)c2[nH]1` [Example 159] was tested, and the IC50 was over 1000 nM.
For `CC(C)C[C@@H](C(=O)N1C[C@]2(C[C@H]1C#N)C(=O)Nc1ccccc12)N(C(=O)OCc1ccccc1)C(C)C` [Example 160], the IC50 was over 1000 nM.
For `CC(C)N(C(=O)OC(C)(C)C)[C@@H](Cc1ccccc1)C(=O)N1C[C@]2(C[C@H]1C#N)C(=O)Nc1ccccc12` [Example 161], the IC50 was over 1000 nM.
In the case of `CC(C)C[C@@H](C(=O)N1C[C@]2(C[C@H]1C#N)C(=O)Nc1ccccc12)N(C)C(=O)c1ccccc1Cl` [Example 162], the IC50 is reported as under 100 nM.
`CC(C)C[C@@H](C(=O)N1C[C@]2(C[C@H]1C#N)C(=O)Nc1ccccc12)N(C)C(=O)c1ccc(Cl)cc1` [Example 163] was tested, and the IC50 was 100 to 1000 nM.
With `CC(C)C[C@@H](C(=O)N1C[C@]2(C[C@H]1C#N)C(=O)Nc1ccccc12)N(C)C(=O)c1cccc(F)c1Cl` [Example 164] the IC50 was under 100 nM.
Work on `CC(C)C[C@@H](C(=O)N1C[C@]2(C[C@H]1C#N)C(=O)Nc1ccccc12)N(C)C(=O)c1ccc(C#N)c(Cl)c1` [Example 165] yielded an IC50 of 100 to 1000 nM.
With `CC(C)C[C@@H](C(=O)N1C[C@]2(C[C@H]1C#N)C(=O)Nc1ccccc12)N(C)C(=O)c1ccc(Cl)c(Cl)c1` [Example 166] the IC50 was under 100 nM.
In the case of `CC(C)C[C@@H](C(=O)N1C[C@]2(C[C@H]1C#N)C(=O)Nc1ccccc12)N(C)C(=O)c1cccc(Cl)c1` [Example 167], the IC50 is reported as under 100 nM.
In the case of `CC(C)C[C@@H](C(=O)N1C[C@]2(C[C@H]1C#N)C(=O)Nc1ccccc12)N(C)C(=O)c1ccc(Cl)cc1Cl` [Example 168], the IC50 is reported as under 100 nM.
In the case of `CC(C)C[C@@H](C(=O)N1C[C@]2(C[C@H]1C#N)C(=O)Nc1ccccc12)N(C)C(=O)c1c(Cl)ccc(Cl)c1F` [Example 169], the IC50 is reported as under 100 nM.
For `COc1ccc(Cl)cc1C(=O)N(C)[C@@H](CC(C)C)C(=O)N1C[C@]2(C[C@H]1C#N)C(=O)Nc1ccccc12` [Example 170], the IC50 was under 100 nM.
`CC(C)C[C@@H](C(=O)N1C[C@]2(C[C@H]1C#N)C(=O)Nc1ccccc12)N(C)C(=O)c1cc(Cl)c(F)cc1F` [Example 171] was tested, and the IC50 was under 100 nM.
`CC(C)C[C@@H](C(=O)N1C[C@]2(C[C@H]1C#N)C(=O)Nc1ccccc12)N(C)C(=O)c1cc(Cl)cc(Cl)c1` [Example 172] showed an IC50 of under 100 nM.
`CC(C)C[C@@H](C(=O)N1C[C@]2(C[C@H]1C#N)C(=O)Nc1ccccc12)N(C)C(=O)c1cc(F)cc(Cl)c1` [Example 173] was tested, and the IC50 was under 100 nM.
`CC(C)C[C@@H](C(=O)N1C[C@]2(C[C@H]1C#N)C(=O)Nc1ccccc12)N(C)C(=O)c1ccc(Cl)c(C(F)(F)F)c1` [Example 174] showed an IC50 of under 100 nM.
`CC(C)C[C@@H](C(=O)N1C[C@]2(C[C@H]1C#N)C(=O)Nc1ccccc12)N(C)C(=O)c1ccc(Cl)c(F)c1F` [Example 175] gave an IC50 of under 100 nM.
Molecule `CC(C)C[C@@H](C(=O)N1C[C@]2(C[C@H]1C#N)C(=O)Nc1ccccc12)N(C)C(=O)c1ccc(F)c(C(F)(F)F)c1` [Example 177] has an IC50 of under 100 nM.
Work on `CC(C)C[C@@H](C(=O)N1C[C@]2(C[C@H]1C#N)C(=O)Nc1ccccc12)N(C)C(=O)c1ccc(F)c(F)c1` [Example 178] yielded an IC50 of under 100 nM.
With `CC(C)C[C@@H](C(=O)N1C[C@]2(C[C@H]1C#N)C(=O)Nc1ccccc12)N(C)C(=O)c1ccc(OC(F)(F)F)c(F)c1` [Example 179] the IC50 was under 100 nM.
Work on `COc1ccc(C(=O)N(C)[C@@H](CC(C)C)C(=O)N2C[C@]3(C[C@H]2C#N)C(=O)Nc2ccccc23)cc1C(F)(F)F` [Example 181] yielded an IC50 of under 100 nM.
In the case of `COc1ccc(C(=O)N(C)[C@@H](CC(C)C)C(=O)N2C[C@]3(C[C@H]2C#N)C(=O)Nc2ccccc23)cc1F` [Example 182], the IC50 is reported as under 100 nM.
For `CC(C)C[C@@H](C(=O)N1C[C@]2(C[C@H]1C#N)C(=O)Nc1ccccc12)N(C)C(=O)c1c(Cl)cc(Cl)cc1Cl` [Example 185], the IC50 was under 100 nM.
Work on `CC(C)C[C@@H](C(=O)N1C[C@]2(C[C@H]1C#N)C(=O)Nc1ccccc12)N(C)C(=O)c1c(Cl)cc(F)cc1Cl` [Example 186] yielded an IC50 of under 100 nM.
With `CC(C)C[C@@H](C(=O)N1C[C@]2(C[C@H]1C#N)C(=O)Nc1ccccc12)N(C)C(=O)c1cc(Cl)cc(C#N)c1` [Example 187] the IC50 was under 100 nM.
Work on `CC(C)C[C@@H](C(=O)N1C[C@]2(C[C@H]1C#N)C(=O)Nc1ccccc12)N(C)C(=O)c1cccc(OC(F)F)c1` [Example 188] yielded an IC50 of under 100 nM.
Molecule `CC(C)C[C@@H](C(=O)N1C[C@]2(C[C@H]1C#N)C(=O)Nc1ccccc12)N(C)C(=O)c1cccc(OC(F)(F)F)c1` [Example 189] has an IC50 of 100 to 1000 nM.
With `CC(C)C[C@@H](C(=O)N1C[C@]2(C[C@H]1C#N)C(=O)Nc1ccccc12)N(C)C(=O)c1ccc2c(c1)OC(F)(F)O2` [Example 190] the IC50 was 100 to 1000 nM.
`COc1ccnc(C(=O)N(C)[C@@H](CC(C)C)C(=O)N2C[C@]3(C[C@H]2C#N)C(=O)Nc2ccccc23)c1` [Example 192] gave an IC50 of 100 to 1000 nM.
For `COc1ccc(C(=O)N(C)[C@@H](CC(C)C)C(=O)N2C[C@]3(C[C@H]2C#N)C(=O)Nc2ccccc23)nc1` [Example 193], the IC50 was 100 to 1000 nM.
